According to US8507219B2, “Method of treating inflammation with statins” (MUSC Foundation for Research Development, priority 1997, dated 2013):
Read-outs that look alike come from different tables or passages of the source.

Tests used:
iNOS = assay: Immunofluorescence of iNOS in brain sections of EAE rats; assay type: in vivo, Lewis rats; conditions: daily i.p. treatment from day 1
Protocol: One group of animals induced for EAE was left untreated while another group of animals was not induced for EAE and used as the control group.
Immunohistochemistry Brains were fixed in 10% buffered formalin (Stephens Scientific, Riverdale, N.J.). The tissues were embedded in paraffin and sectioned at 4 μm. Sections were then stained for various cytokines and cell markers as described below. For single-label immunohistochemistry, sections were incubated with either anti-iNOS antibody (1:100, rabbit polyclonal, Calbiochem, LaJolla, Calif.) or anti-TNF-α antibody (1:100, rabbit polyclonal, Genzyme, Cambridge, Mass.) or anti-IFN-γ antibody (1:200, rabbit polyclonal, Biosource International, Camarillo, Calif.) essentially as described for other antibodies (Hooper et al., 1997). The tissue sections were further incubated with FITC conjugated anti-rabbit IgG (1:100, Sigma, St. Louis, Mo.), mounted with mounting media (EMS) and analyzed by immunofluorescence microscopy (Olympus) using Adobe photoshop software. For immunofluorescent double-labeling, sections were incubated first with anti-iNOS (1:100) followed by macrophage marker ED1 (1:100, mouse monoclonal, Biosource International, Camarillo, Calif.). Anti-iNOS was visualized using TRITC conjugated anti-rabbit IgG—(1:100, Sigma, St. Louis, Mo.) and ED1 using FITC conjugated anti-mouse IgG (1:100, Sigma, St. Louis, Mo.). […]

[1] = test system: NO production in rat resident macrophages; assay: LPS-/cytokine-induced NO production (nitrite) in rat resident peritoneal macrophages; assay type: cell-based; conditions: for inhibition at 20000 µM: Rattus norvegicus, Macrophage
Protocol: Isolation of Rat Macrophages and Induction of NO Production Resident macrophages were obtained from rats by peritoneal lavage with sterile RPMI 1640 medium containing 1% fetal bovine serum and 100 μg/ml gentamicin (Wang et al., 1995). Cells were washed three times with RPMI 1640 at 4° C. All cell cultures were maintained at 37° C. in a humidified incubator containing 5% CO2 in air. Macrophages, at a concentration of 2×10^6/ml in RPMI 1640 medium containing L-glutamine and gentamicin, were added in volumes of 800 μl to a 35 mm plate. After 1 h, nonadherent cells were removed by washing and 800 μl of serum-free RPMI 1640 medium with various stimuli were added to the adherent cells. After 24 h incubation in 5% CO2 in air at 37° C., the culture supernatants were transferred to measure NO production (Geng et al., 1995; Wang et al., 1995).
Isolation of rat macrophages and induction of NO production Resident macrophages were obtained from rat by peritoneal lavage with sterile RPMI 1640 medium containing 1% fetal bovine serum and 100 μg/ml gentamicin as described herein. Cells were washed three times with RPMI 1640 at 4° C. All cell cultures were maintained at 37° C. in a humidified incubator containing 5% CO2 in air. Macrophages at a concentration of 2×10^6/ml in RPMI 1640 medium containing L-glutamine and gentamicin were added in volumes of 800 μl to a 35 mm plate. After 1 h, nonadherent cells were removed by washing and 800 μl of serum-free RPMI 1640 medium with various stimuli were added to the adherent cells. After incubation in 5% CO2 in air at 37° C., culture supernatants were transferred to measure NO production.
Isolation of rat macrophages and induction of NO production Resident macrophages were obtained from rat by peritoneal lavage with sterile RPMI 1640 medium containing 1% FBS and 100 μg/ml gentamicin. Cells were washed three times with RPMI 1640 at 4° C., and were maintained at 37° C. in a humidified incubator containing 5% CO2 in air. Macrophages at a concentration of […] in RPMI 1640 medium containing L-glutamine and gentamicin were added in volumes of 800 μl to a 35-mm plate. After 1 h, nonadherent cells were removed by washing, and 800 μl of serum-free RPMI 1640 medium with various stimuli was added to the adherent cells. After 24 h the culture supernatants were transferred to measure NO production.
Protein was measured (Bradford, 1976).

EAE in female Lewis rats = assay: Experimental allergic encephalomyelitis (EAE), clinical score; assay type: in vivo; conditions: treatment from first day of immunization
Protocol: Rats were induced with EAE by injecting intradermally 50 μg of myelin basic protein (MBP) per animal emulsified in complete Freund's adjuvant (CFA) into the medial footpad of each hind leg on day 1 followed by a booster injection on the 7th day under ether anesthesia. Clinical symptoms in these rats manifest as an ascending paralysis resulting in death in most animals. The signs of EAE were scored as: (0) normal; (1) piloerection; […] (4) paraplegia; and (5) moribund. […] One group of animals induced for EAE was left untreated while another group of animals was not induced for EAE and used as the control group.

For `CC(=O)N[C@@H](CS)C(=O)O` [NAC, N-acetyl cysteine], the “expression of iNOS in EAE brain” value (iNOS) was “blocked the ability of MBP to induce the expression of iNOS”, the Nitrite ([1]; IFN-γ 200 U/ml, NAC 20 mM 2 h before) was 9.9 ± 1.8 nmol/mg/24 h and the Nitrite ([1]; IL-1β 200 ng/ml, NAC 20 mM 2 h before) was 9.2 ± 0.7 nmol/mg/24 h. It also gave a Nitrite ([1]; LPS 0.2 μg/ml + IFN-γ 50 U/ml, NAC 20 mM 2 h before) of 25.2 ± 3.9 nmol/mg/24 h, a Nitrite ([1]; LPS 0.2 μg/ml + IL-1β 25 ng/ml, NAC 20 mM 2 h before) of 28.4 ± 3.7 nmol/mg/24 h and a Nitrite ([1]; LPS 0.2 μg/ml + TNF-α 20 ng/ml, NAC 20 mM 2 h before) of 13.6 ± 2.6 nmol/mg/24 h. The Nitrite ([1]; LPS 1.0 μg/ml, 24 h, NAC 20 mM 2 h before LPS, NMA 0.1 mM, arginase 100 units/ml with LPS) was 11.6 ± 1.5 nmol/mg Protein^24h, the “rate of nitrite accumulation” value ([1]; LPS 1.0 μg/ml, NAC 20 mM, onset of NO release until 24 h, 5.2 in the absence of NAC) was 0.5 nmol/mg/h and the Nitrite ([1]; LPS 1.0 μg/ml, NAC 20 mM 2 h before) was 11.6 ± 1.5 nmol/mg/24 h. For the same compound, the Nitrite ([1]; NAC 20 mM alone, no LPS, 24 h) was 6.2 ± 0.8 nmol/mg Protein^24h, the inhibition at 20000 µM ([1]; 7 h, NAC 20 mM added 7 h after the addition of LPS, read-out: inhibition of nitrite production) was 20% and the inhibition at 20000 µM ([1]; IFN-γ 200 U/ml, NAC 20 mM 2 h before, read-out: Inhibition (%) of nitrite) was 89%. The inhibition at 20000 µM ([1]; IL-1β 200 ng/ml, NAC 20 mM 2 h before, read-out: Inhibition (%) of nitrite) was 57%, the inhibition at 20000 µM ([1]; LPS 0.2 μg/ml + IFN-γ 50 U/ml, NAC 20 mM 2 h before, read-out: Inhibition (%) of nitrite) was 84% and the inhibition at 20000 µM ([1]; LPS 0.2 μg/ml + IL-1β 25 ng/ml, NAC 20 mM 2 h before, read-out: Inhibition (%) of nitrite) was 81%. The inhibition at 20000 µM ([1]; LPS 0.2 μg/ml + TNF-α 20 ng/ml, NAC 20 mM 2 h before, read-out: Inhibition (%) of nitrite) was 92%, the inhibition at 20000 µM ([1]; LPS 1.0 μg/ml, NAC 20 mM 2 h before, read-out: Inhibition (%) of nitrite) was 91% and the inhibition at 20000 µM ([1]; NAC 20 mM, 2 h before LPS, read-out: inhibition of LPS-mediated nitrite production) was > 90%. It also gave an inhibition at 20000 µM ([1]; TNF-α 20 ng/ml + IFN-γ 50 U/ml, NAC 20 mM 2 h before, read-out: Inhibition (%) of nitrite) of 79%, an inhibition at 20000 µM ([1]; TNF-α 20 ng/ml + IL-1β 25 ng/ml, NAC 20 mM 2 h before, read-out: Inhibition (%) of nitrite) of 83% and an inhibition at 20000 µM ([1]; TNF-α 100 ng/ml, NAC 20 mM 2 h before, read-out: Inhibition (%) of nitrite) of 64%. It also gave an inhibition at 20000 µM ([1]; no stimulus (Control), NAC 20 mM, read-out: Inhibition (%) of nitrite) of 37%, an inhibition at 20000 µM ([1]; of LPS (1.0 μg/ml)-induced nitrite, NAC 20 mM 2 h before, NMA 0.1 mM, arginase 100 units/ml with LPS, read-out: Inhibition (%)) of 91% and a Nitrite ([1]; TNF-α 20 ng/ml + IFN-γ 50 U/ml, NAC 20 mM 2 h before) of 29.6 ± 4.2 nmol/mg/24 h. It also gave a Nitrite ([1]; TNF-α 20 ng/ml + IL-1β 25 ng/ml, NAC 20 mM 2 h before) of 22.8 ± 2.7 nmol/mg/24 h, a Nitrite ([1]; TNF-α 100 ng/ml, NAC 20 mM 2 h before) of 10.1 ± 1.6 nmol/mg/24 h and a Nitrite ([1]; no stimulus (Control), NAC 20 mM) of 6.2 ± 0.8 nmol/mg/24 h. The “protection against EAE disease” value (EAE in female Lewis rats) was “protected the rats from the severity of the disease”.
